A short description of assay [1]: Taste evaluation, sweetness compared to control sucrose acidic water solutions (Example 1). Format: in vivo, human. The following applies: samples with 320 ppm rebaudioside M in acidic water (citric acid); one panelist; controls 8%, 9%, 10% sucrose. An excerpt: The panelist was instructed to sip, evaluate the sweetness, and then spit the sample in cups provided for that purpose.

The conditions of assay [2]: 30 ppm cyclamate in acidic water; one panelist.
Procedure: (§1) Ingredients were added to water while stirring until solids were visibly dissolved and the sample was poured into a glass bottle and stored at 4° C.
(§2) Taste tests were carried out with one panelist. Bottles were removed from the refrigerator and about 25 ml of beverage was poured into 4 oz-plastic cups. The panelist was given mineral water to rinse their mouth before tasting and between tasting different samples. Unsalted crackers were also given to eat followed by rinsing the mouth with mineral water before tasting the next sample.
(§3) Initially, the panelist was asked to determine the sweetness of the 30 ppm of cyclamate (Table 1).
The panelist was asked to compare the taste profile of (i) a sample of 150 ppm rebaudioside M in acidic water and (ii) a sample of 150 ppm rebaudioside M and 30 ppm cyclamate (below the sweetness recognition threshold concentration) in acidic water. The panelist was asked to compare the sweetness and taste profiles of the two samples.
The conditions of assay [3]: 30 ppm cyclamate in acidic water; one panelist. This is another data set of the same source.
Procedure: as §1, §2, §3

Experimental findings from US12465065B2, “Method of preparing beverages with enhanced sweetness with cyclamate” (The Coca-Cola Company, priority 2017, dated 2025) are described below.

Like-named read-outs stand apart in the source and are kept apart here.

With `C=C1C[C@@]23CC[C@H]4[C@@](C)(CCC[C@@]4(C)C(=O)O[C@@H]4O[C@H](CO)[C@@H](O)[C@H](O[C@@H]5O[C@H](CO)[C@@H](O)[C@H](O)[C@H]5O)[C@H]4O[C@@H]4O[C@H](CO)[C@@H](O)[C@H](O)[C@H]4O)[C@@H]2CC[C@]1(O[C@@H]1O[C@H](CO)[C@@H](O)[C@H](O[C@@H]2O[C@H](CO)[C@@H](O)[C@H](O)[C@H]2O)[C@H]1O[C@@H]1O[C@H](CO)[C@@H](O)[C@H](O)[C@H]1O)C3` [rebaudioside M], the “sweetness compared to control sucrose acidic water solutions” value in assay [1] is listed as below 8%.
For the molecule `O=S(=O)([O-])NC1CCCCC1.[Na+]` [cyclamate, sodium cyclamate], the “sweetness of cyclamate alone” value in assay [2] and in assay [3] was “not sweet” throughout.
